Measurements reported in patent US12324802B2, “Modulators of cystic fibrosis transmembrane conductance regulator” (Vertex Pharmaceuticals Incorporated, priority 2020, dated 2025).

molecular target: T1, CFTR (F508del/MF-HBE cells) (Homo sapiens, UniProt P13569, DEL508-508); assay: Ussing chamber assay of CFTR-mediated short-circuit currents (identification of potentiator compounds); assay type: cell-based; conditions: CFTR-mediated ISC in F508del/MF-HBE cells; incubated 18-24 hours at 37° C. with 10 μM (14S)-8-[3-(2-{dispiro[2.0.2.1]heptan-7-yl}ethoxy)-1H-pyrazol-1-yl]-...-2,2,4-trione, 20% human serum
T1 construct: human bronchial epithelial (HBE) cells derived from CF subjects heterozygous for F508del and a minimal function CFTR mutation; endogenous in cells; host or cells: primary human bronchial epithelial cells from CF subjects (F508del/MF genotype)
Experimental: Ussing Chamber Assay of CFTR-Mediated Short-Circuit Currents
Ussing chamber experiments were performed using human bronchial epithelial (HBE) cells derived from CF subjects heterozygous for F508del and a minimal function CFTR mutation (F508del/MF-HBE) and cultured as previously described (Neuberger T, Burton B, Clark H, Van Goor F Methods Mol Biol 2011:741:39-54). After four days the apical media was removed, and the cells were grown at an air liquid interface for >14 days prior to use.
To isolate the CFTR-mediated short-circuit (ISC) current, F508del/MF-HBE grown on Costar® Snapwell™ cell culture inserts were mounted in an Ussing chamber and the transepithelial ISC was measured under voltage-clamp recording conditions (Vhold=0 mV) at 37° C. The basolateral solution contained (in mM) 145 NaCl, 0.83 K2HPO4, 3.3 KH2PO4, 1.2 MgCl2, 1.2 CaCl2), 10 Glucose, 10 HEPES (pH adjusted to 7.4 with NaOH) and the apical solution contained (in mM) 145 NaGluconate, 1.2 MgCl2, 1.2 CaCl2), 10 glucose, 10 HEPES (pH adjusted to 7.4 with NaOH) and 30 μM amiloride to block the epithelial sodium channel. Forskolin (20 μM) was added to the apical surface to activate CFTR, followed by apical addition of a CFTR inhibitor cocktail consisting of BPO, GlyH-101 and CFTR inhibitor 172 (each at 20 μM final assay concentration) to specifically isolate CFTR currents. The CFTR-mediated ISC (μA/cm^2) for each condition was determined from the peak forskolin response to the steady-state current following inhibition.
Identification of Potentiator Compounds
The activity of the CFTR potentiator compounds on the CFTR-mediated ISC was determined in Ussing chamber studies as described above. The F508del/MF-HBE cell cultures were incubated with the potentiator compounds at a range of concentrations in combination with 10 μM (14S)-8-[3-(2-{dispiro[2.0.2.1]heptan-7-yl}ethoxy)-1H-pyrazol-1-yl]-12,12-dimethyl-2λ^6-thia-3,9,11,18,23-pentaazatetracyclo [17.3.1.111,14.05,10]tetracosa-1(22),5,7,9,19(23),20-hexaene-2,2,4-trione for 18-24 hours at 37° C. and in the presence of 20% human serum. The concentration of potentiator compounds and (14S)-8-[3-(2-{dispiro[2.0.2.1]heptan-7-yl}ethoxy)-1H-pyrazol-1-yl]-12,12-dimethyl-2λ^6-thia-3,9,11,18,23-pentaazatetracyclo [17.3.1.111,14.05,10]tetracosa-1(22),5,7,9,19(23),20-hexaene-2,2,4-trione used during the 18-24 hours incubations was kept constant throughout the Ussing chamber measurement of the CFTR-mediated ISC to ensure compounds were present throughout the entire experiment. The efficacy and potency of the putative F508del potentiators was compared to that of the known Vertex potentiator, ivacaftor (N-[2,4-bis(1,1-dimethylethyl)-5-hydroxyphenyl]-1,4-dihydro-4-oxoquinoline-3-carboxamide).

T1 sequence (P13569 with tags, fused parts or gaps DEL508-508): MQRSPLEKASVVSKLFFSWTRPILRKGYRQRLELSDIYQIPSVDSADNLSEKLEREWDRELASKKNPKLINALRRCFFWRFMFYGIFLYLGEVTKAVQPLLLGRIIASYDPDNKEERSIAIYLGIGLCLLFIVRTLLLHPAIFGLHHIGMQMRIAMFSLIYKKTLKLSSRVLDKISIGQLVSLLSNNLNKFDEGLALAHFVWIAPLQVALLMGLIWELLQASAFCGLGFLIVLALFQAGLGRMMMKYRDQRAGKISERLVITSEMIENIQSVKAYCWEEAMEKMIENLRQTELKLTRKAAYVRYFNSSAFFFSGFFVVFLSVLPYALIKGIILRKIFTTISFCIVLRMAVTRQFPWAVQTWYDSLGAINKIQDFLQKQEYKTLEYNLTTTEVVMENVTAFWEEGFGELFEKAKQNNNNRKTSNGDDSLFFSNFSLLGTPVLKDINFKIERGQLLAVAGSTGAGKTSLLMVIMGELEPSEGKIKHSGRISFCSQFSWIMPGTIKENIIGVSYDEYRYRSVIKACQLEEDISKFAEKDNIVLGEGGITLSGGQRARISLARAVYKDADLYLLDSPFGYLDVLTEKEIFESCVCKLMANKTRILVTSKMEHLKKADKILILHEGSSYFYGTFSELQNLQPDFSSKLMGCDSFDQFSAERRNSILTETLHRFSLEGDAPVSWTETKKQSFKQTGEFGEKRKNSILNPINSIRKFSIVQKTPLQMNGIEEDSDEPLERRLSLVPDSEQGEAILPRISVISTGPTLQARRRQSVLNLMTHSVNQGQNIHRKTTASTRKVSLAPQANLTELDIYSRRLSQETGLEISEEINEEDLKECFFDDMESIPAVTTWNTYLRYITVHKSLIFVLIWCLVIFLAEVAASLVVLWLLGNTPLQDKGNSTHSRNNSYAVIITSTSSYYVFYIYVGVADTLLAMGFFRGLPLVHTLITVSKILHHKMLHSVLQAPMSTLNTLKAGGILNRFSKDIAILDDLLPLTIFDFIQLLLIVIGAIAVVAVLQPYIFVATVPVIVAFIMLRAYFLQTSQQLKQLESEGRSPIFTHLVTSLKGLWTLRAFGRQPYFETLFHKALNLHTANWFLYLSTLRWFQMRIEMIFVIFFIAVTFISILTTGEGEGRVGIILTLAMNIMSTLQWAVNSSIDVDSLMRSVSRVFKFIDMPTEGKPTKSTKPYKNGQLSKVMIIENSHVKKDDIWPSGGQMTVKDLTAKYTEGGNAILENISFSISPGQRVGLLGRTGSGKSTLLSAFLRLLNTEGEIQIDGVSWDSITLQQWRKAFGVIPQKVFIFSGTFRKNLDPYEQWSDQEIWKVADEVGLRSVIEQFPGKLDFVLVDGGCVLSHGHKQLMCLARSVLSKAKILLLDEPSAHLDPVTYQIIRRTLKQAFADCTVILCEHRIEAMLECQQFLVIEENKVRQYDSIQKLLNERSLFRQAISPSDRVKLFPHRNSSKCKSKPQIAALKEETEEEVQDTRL

| EC50 [µM] | SMILES |
| --- | --- |
| < 0.5 | Nc1cc(Cc2ccccc2)c2nc1-c1nnc(o1)C(O)(C(F)(F)F)CCCCC[C@@H]1CCCN21 (mixture of isomers) [Compound 137, (12R)-20-amino-18-benzyl-6-(trifluoromethyl)-22-oxa-3,4,16,21-tetraazatetracyclo[15.3.1.12,5.012,16]docosa-1(21),2,4,17,19-pentaen-6-ol] |
| < 0.5 | Nc1cc(C(F)(F)F)c2nc1-c1nnc(o1)[C@@](O)(C(F)(F)F)c1cc(ccc1F)C=CC[C@@H]1CCCN21 (mixture of isomers) [Compound 138, (6R,15S)-23-amino-8-fluoro-6,21-bis(trifluoromethyl)-26-oxa-3,4,19,24-tetraazapentacyclo[18.3.1.12,5.17,11.015,19]hexacosa-1(24),2,4,7(25),8,10,12,20,22-nonaen-6-ol] |
| > 1 | Nc1cc(C(F)(F)F)c2nc1-c1nnc(o1)[C@](O)(C(F)(F)F)c1cc(ccc1F)C=CC[C@@H]1CCCN21 (mixture of isomers) [Compound 139, (6S,15S)-23-amino-8-fluoro-6,21-bis(trifluoromethyl)-26-oxa-3,4,19,24-tetraazapentacyclo[18.3.1.12,5.17,11.015,19]hexacosa-1(24),2,4,7(25),8,10,12,20,22-nonaen-6-ol] |
| > 1 | NC(=O)c1cc(N)c2nc1N1CCC[C@H]1CCCCCC(O)(C(F)(F)F)C1=NN=C2O1 (mixture of isomers) [Compound 142, (12R)-20-amino-6-hydroxy-6-(trifluoromethyl)-22-oxa-3,4,16,21-tetraazatetracyclo[15.3.1.12,5.012,16]docosa-1(21),2,4,17,19-pentaene-18-carboxamide] |
| < 0.5 | Nc1cc(S(=O)(=O)c2ccc(OC(F)(F)F)cc2)c2nc1-c1nnc(o1)C(O)(C(F)(F)F)CCCCC[C@@H]1CCCN21 (mixture of isomers) [Compound 143, (12R)-20-amino-18-[4-(trifluoromethoxy)benzenesulfonyl]-6-(trifluoromethyl)-22-oxa-3,4,16,21-tetraazatetracyclo[15.3.1.12,5.012,16]docosa-1(20),2,4,17(21),18-pentaen-6-ol] |
| < 0.5 | Nc1cc([S+]([O-])c2ccc(OC(F)(F)F)cc2)c2nc1-c1nnc(o1)C(O)(C(F)(F)F)CCCCC[C@@H]1CCCN21 (mixture of isomers) [Compound 145, (12R)-20-amino-18-[4-(trifluoromethoxy)benzenesulfinyl]-6-(trifluoromethyl)-22-oxa-3,4,16,21-tetraazatetracyclo[15.3.1.12,5.012,16]docosa-1(21),2,4,17,19-pentaen-6-ol] |
| 0.5 to 1 | Nc1cc(C(F)(F)F)c2nc1-c1nnc(o1)[C@](O)(C(F)(F)F)CCCCC[C@H]1CCCN21 (single isomer, unassigned) [Compound 6] |
| < 0.5 | Nc1cc(C(F)(F)F)c2nc1-c1nnc(o1)[C@@](O)(C(F)(F)F)CCCCC[C@H]1CCCN21 (single isomer, unassigned) [Compound 7] |
| < 0.5 | CN1CCCCCCC(O)(C(F)(F)F)C2=NN=C(O2)c2nc1c(C(F)(F)F)cc2N (single isomer, unassigned) [Compound 19, 17-amino-13-methyl-6,15-bis(trifluoromethyl)-19-oxa-3,4,13,18-tetrazatricyclo[12.3.1.12,5]nonadeca-1(18),2,4,14,16-pentaen-6-ol] |
| 0.5 to 1 | CN1CCCCCCC(O)(C(F)(F)F)C2=NN=C(O2)c2nc1c(C(F)(F)F)cc2N (single isomer, unassigned) [Compound 20, 17-amino-13-methyl-6,15-bis(trifluoromethyl)-19-oxa-3,4,13,18-tetrazatricyclo[12.3.1.12,5]nonadeca-1(18),2,4,14,16-pentaen-6-ol] |
| < 0.5 | Nc1cc(C(F)(F)F)c2nc1-c1nnc(o1)C(O)CCCCC[C@@H]1CCCN21 (single isomer, unassigned) [Compound 21] |
| < 0.5 | Nc1cc(C(F)(F)F)c2nc1-c1nnc(o1)C(O)(C(F)(F)F)CCCCCCC1CCCN21 (single isomer, unassigned) [Compound 23, 21-amino-6,19-bis(trifluoromethyl)-23-oxa-3,4,17,22-tetraazatetracyclo[16.3.1.12,5.013,17]tricosa-1(22),2,4,18,20-pentaen-6-ol] |
| < 0.5 | Nc1cc(C(F)(F)F)c2nc1-c1nnc(o1)C(O)(C(F)(F)F)CCCCCCC1CCCN21 (single isomer, unassigned) [Compound 24, 21-amino-6,19-bis(trifluoromethyl)-23-oxa-3,4,17,22-tetraazatetracyclo[16.3.1.12,5.013,17]tricosa-1(22),2,4,18,20-pentaen-6-ol] |
| < 0.5 | Nc1cc(C(F)(F)F)c2nc1-c1nnc(o1)C(O)(C(F)(F)F)CCCCCCC1CCCN21 (single isomer, unassigned) [Compound 25, 21-amino-6,19-bis(trifluoromethyl)-23-oxa-3,4,17,22-tetraazatetracyclo[16.3.1.12,5.013,17]tricosa-1(22),2,4,18,20-pentaen-6-ol] |
| > 1 | Nc1cc(C(F)(F)F)c2nc1-c1nnc(o1)C(O)(C(F)(F)F)CCCCCCC1CCCN21 (single isomer, unassigned) [Compound 26, 21-amino-6,19-bis(trifluoromethyl)-23-oxa-3,4,17,22-tetraazatetracyclo[16.3.1.12,5.013,17]tricosa-1(22),2,4,18,20-pentaen-6-ol] |
| < 0.5 | CC1(C)CC2CCCCCC(O)(C(F)(F)F)C3=NN=C(O3)c3nc(c(C(F)(F)F)cc3N)N2C1 (single isomer, unassigned) [Compound 29, 20-amino-14,14-dimethyl-6,18-bis(trifluoromethyl)-22-oxa-3,4,16,21-tetraazatetracyclo[15.3.1.12,5.012,16]docosa-1(21),2,4,17,19-pentaen-6-ol] |
| < 0.5 | Nc1cc(C(F)(F)F)c2nc1-c1nnc(o1)C(O)(C(F)(F)F)CCCC[C@@H]1CCCN21 (single isomer, unassigned) [Compound 32] |
| > 1 | Nc1cc(C(F)(F)F)c2nc1-c1nnc(o1)C(O)(C(F)(F)F)CCCC[C@@H]1CCCN21 (single isomer, unassigned) [Compound 33] |
| < 0.5 | COCCN1CCCCCCC(O)(C(F)(F)F)C2=NN=C(O2)c2nc1c(C(F)(F)F)cc2N (single isomer, unassigned) [Compound 34, 17-amino-13-(2-methoxyethyl)-6,15-bis(trifluoromethyl)-19-oxa-3,4,13,18-tetrazatricyclo[12.3.1.12,5]nonadeca-1(18),2,4,14,16-pentaen-6-ol] |
| > 1 | COCCN1CCCCCCC(O)(C(F)(F)F)C2=NN=C(O2)c2nc1c(C(F)(F)F)cc2N (single isomer, unassigned) [Compound 35, 17-amino-13-(2-methoxyethyl)-6,15-bis(trifluoromethyl)-19-oxa-3,4,13,18-tetrazatricyclo[12.3.1.12,5]nonadeca-1(18),2,4,14,16-pentaen-6-ol] |
| < 0.5 | Nc1cc(C(F)(F)F)c2nc1-c1nnc(o1)C(O)(C(F)(F)F)CCCC(=O)N1CCN2CC1 (single isomer, unassigned) [Compound 37, 5-amino-11-hydroxy-3,11-bis(trifluoromethyl)-21-oxa-1,8,9,16,22-pentaazatetracyclo[14.2.2.12,6.17,10]docosa-2,4,6(22),7,9-pentaen-15-one] |
| > 1 | Nc1cc(C(F)(F)F)c2nc1-c1nnc(o1)C(O)(C(F)(F)F)CCCC(=O)N1CCN2CC1 (single isomer, unassigned) [Compound 38, 5-amino-11-hydroxy-3,11-bis(trifluoromethyl)-21-oxa-1,8,9,16,22-pentaazatetracyclo[14.2.2.12,6.17,10]docosa-2,4,6(22),7,9-pentaen-15-one] |
